Measured values from patent US9211313B2, “Methods and compound to inhibit Ca2+ permeable cation conductance” (priority 2011, dated 2015).

Legend:
[1] = tested on: Berkeley sickle mouse red cells; assay: Fluo-3 fluorescence measurement of [Ca2+]i during deoxygenation, Berkeley cells; assay type: cell-based; settings: 1 μM bath preincubation
Method: (§1) Blood was withdrawn by cardiac puncture or from the tail vein of C57B16/J wildtype mice, SAD sickle mice, or Berkeley sickle mice into heparinized syringes by IACUC-approved protocols of Beth Israel Deaconess Medical Center. Buffy coat-depleted cells were washed 5 times in standard mouse red cell wash solution containing (in mM) 172 choline Cl, 10 sucrose, 10 Na Tris-MOPS, pH 7.4, resuspended in storage solution, and kept at 4° C. until use.
Fluorescence measurements of cytosolic [Ca^2+] […]
(§2) Measurement of relative changes in [Ca^2+]i by Fluo-3 fluorescence emission was previously validated in intact human (Yang et al. 2000, Blood, 95(7):2421-2425; Andrews et al. 2002, Blood, 199(9):3392-3399) and mouse red cells (Akel et al. 2007, Amer. J. Physiol., 292(5):C1759-1767). […] Fluorescence emission (proportional to [Ca^2+]i) from a 535ds20 bandpass filter was collected from all attached single cells within the arbitrarily selected visual field. […]
Fluo-3 fluorescence from attached cells on each coverslip was recorded 60 sec in room air and then for 10 min after onset of perfusion chamber flushing with humidified 100% N2. […] The y-axis value of 0% change in Fluo-3 fluorescence intensity represented mean intensity recorded from all cells within the coverslip visual field during the 60 sec prior to deoxygenation.

human SS red cells = assay: Fluo-3 fluorescence measurement of [Ca2+]i during deoxygenation, human SS cells; assay type: cell-based; settings: 1 μM, 10 min pretreatment and continued presence in bath
Method: Blood cell preparation: Human SS and AA blood was obtained under IRB-approved protocols of Children's Hospital and Beth Israel Deaconess Medical Center. After buffy coat removal and 5 washes in standard human red cell wash solution containing (in mM) 150 choline Cl, 1 MgCl, and 10 Tris-MOPS, pH 7.4, red cells were resuspended in storage solution containing (in mM) 145 KCl, 15 NaCl, and 10 HEPES, pH 7.4, then kept at 4° C. until used. Human red cells allowed to settle on coverslips were mounted on an inverted microscope in a 200 μl open chamber (WPI, Sarasota, Fla.) and superfused 15 min at room temperature by bath solution containing (in mM) 150 Na methanesulfonate, 10 Na EDTA, and 10 Na HEPES, pH 7.4.
Washed human or mouse red cells in solution containing (in mM) 140 NaCl, 5 KCl, 1 CaCl2, 1 MgCl2, 10 Na HEPES, pH 7.4 were exposed for 1 hr on a rotary platform in a 37° C. incubator to 25 ppm carbon monoxide (CO) in 5% CO2. CO-exposed cells were then subjected to patch clamp or to calcium imaging experiments within 60 min after return to room air, using the solutions indicated.
(§3) Fluorescence measurements of cytosolic [Ca^2+] ([Ca^2+]i): After removal of plasma and buffy coat by aspiration, human or mouse red cells were washed three times at room temperature and suspended in modified Hank's solution containing (in mM), 137 NaCl, 5.4 KCl, 1 CaCl2, 1 MgCl2, 0.8 NaK phosphate, 5.6 glucose, and 10 Na HEPES, pH 7.4. Dilute cell suspensions were settled on polylysine-coated coverslips forming the bottom of an open perfusion chamber (2.5 cm diameter, 1 cm depth) and washed again 3 times.
as §2
(§4) Fluo-3 fluorescence from attached cells on each coverslip was recorded 60 sec in room air and then for 10 min after onset of perfusion chamber flushing with humidified 100% N2. The normalized increase in Fluo-3 fluorescence in SS cells subjected to this deoxygenation procedure was indistinguishable from that observed during superfusion of cells in a closed perfusion chamber via syringe pump with bath previously bubbled for 60 min with 100% N2 (n=62 cells from 2 SS patients, not shown). The y-axis value of 0% change in Fluo-3 fluorescence intensity represented mean intensity recorded from all cells within the coverslip visual field during the 60 sec prior to deoxygenation.

[2] = tested on: mechanosensitive channel (MSC); settings: previously shown; cited from earlier work
neurite = assay: Neurite initiation and neurite length; assay type: cell-based
Source text: The peptide GsMTx4 of the present invention can be prepared for pharmaceutical use by incorporation with a pharmaceutically acceptable carrier or diluent. The peptide can be formulated into tablets, capsules, caplets and the like. Suitable carriers for tablets include calcium carbonate, starch, lactose, talc, magnesium stearate and gum acacia. The peptide can also be formulated for oral, parenteral or intravenous administration in aqueous solutions, aqueous alcohol, glycol or oil solutions or emulsions. The peptide can also be formulated for inhaling by encapsulating to facilitate alveolar absorption as has been done for insulin (Inhale Therapeutic Systems, San Carlos, Calif., inhale.com). Pharmaceutical compositions suitable for such routes of administration are well known in the art. For example, suitable forms and compositions of pharmaceutical preparations can be found in Remington's Pharmaceutical Science, 1980, 15^thed. Mack Publishing Co., Easton, Pa. Thus, the peptide GsMTx4 can be administered orally, subcutaneously, parenterally, intravenously, intramuscularly or intranasally. The peptide may also be applied to medical devices that will come into contact blood. Both L and D enantiomers of GsMTx4's and its variants can be used for the present invention. We have previously shown that both L- and D-GsMTx4 block mechanosensitive channel (MSC) activity. Although, we have noted differences in the effects of these enantiomers, both forms are effective. For example, we have observed that the ability of the mirror image form (D-enantiomer) to inhibit mechanically activated ion channels is similar to the wild type peptide (L-form) (Suchyna et al 2004). […] Thus, both L and the D forms can be used in the present invention.

KCa3.1 [3] = target: T1, KCa3.1 (Homo sapiens, UniProt O15554); assay: A23187-stimulated KCa3.1 activity measured as 86Rb influx; assay type: cell-based; settings: 1 μM; intact human AA cells, 1 μM A23187, extracellular Ca2+; n=3
T1 construct: KCa3.1 activity stimulated in intact human AA cells by 1 μM A23187; endogenous in cells; host or cells: intact human AA red blood cells
T1 sequence (O15554 whole entry): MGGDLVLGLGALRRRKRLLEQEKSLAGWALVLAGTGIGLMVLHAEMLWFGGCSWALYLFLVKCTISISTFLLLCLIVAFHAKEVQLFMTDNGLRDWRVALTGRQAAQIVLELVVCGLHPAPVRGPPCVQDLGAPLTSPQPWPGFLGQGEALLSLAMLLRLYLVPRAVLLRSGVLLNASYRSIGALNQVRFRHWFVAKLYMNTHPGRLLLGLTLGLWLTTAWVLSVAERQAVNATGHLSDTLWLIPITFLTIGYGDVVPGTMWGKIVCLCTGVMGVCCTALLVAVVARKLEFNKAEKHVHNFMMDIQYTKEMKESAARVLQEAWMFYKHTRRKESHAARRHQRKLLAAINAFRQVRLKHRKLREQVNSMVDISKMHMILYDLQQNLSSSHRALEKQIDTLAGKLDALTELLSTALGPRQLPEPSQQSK

[4] = tested on: SAD sickle mouse red cells; assay: Fluo-3 fluorescence measurement of [Ca2+]i during deoxygenation, SAD cells; assay type: cell-based; settings: 1 μM; SAD red cells
Method: as §1, §3
Measurement of relative changes in [Ca^2+]i by Fluo-3 fluorescence emission was previously validated in intact human (Yang et al. 2000, Blood, 95(7):2421-2425; Andrews et al. 2002, Blood, 199(9):3392-3399) and mouse red cells (Akel et al. 2007, Amer. J. Physiol., 292(5):C1759-1767). Attached red cells were loaded in the dark with the fluorescent non-ratiometric Ca^2+ indicator Fluo-3-AM (10 μM, Molecular Probes, Eugene, Oreg.) at 37° C. for 1 hr, then washed and incubated 15 min further to allow de-esterification of intracellular dye. The open perfusion chamber containing dye-loaded cells was mounted on an Olympus IMT-2 inverted epifluorescence microscope equipped with CoolSNAP CCD camera (Photometrics, Tucson, Ariz.). Fluo-3 in cells imaged through a 60× objective was excited by mercury-xenon illumination passed through a 495ds20 filter. Fluorescence emission (proportional to [Ca^2+]i) from a 535ds20 bandpass filter was collected from all attached single cells within the arbitrarily selected visual field. Emission image acquisition was controlled by a Metafluor digital imaging system (Universal Imaging, West Chester, Pa.).
as §4

KCa3.1 [5] = target: T1, KCa3.1; assay type: cell-based; settings: 1 μM; intact human AA cells, 1 μM A23187, extracellular Ca2+; n=3

## Grammastola spatulata mechanotoxin 4 (GCLEFWWKCNPNDDKCCRPKLKCSKLFKLCNFSF; listed as Grammastola spatulata) [GsMTx-4]
[1]
  effect on deoxygenation-increased [Ca2+]i: inhibited nearly completely
[1]; listed as GsMtx-4
  effect on deoxygenation-increased [Ca2+]i: prevented
Human SS red cells
  effect on [Ca2+]i elevation by deoxygenation: prevented
Human SS red cells; listed as GsMTx4
  effect on [Ca2+]i elevation by deoxygenation: nearly completely block
Human SS red cells; listed as GsTMx-4
  effect on [Ca2+]i elevation by deoxygenation: blocked
[2]
  effect on mechanosensitive channel (MSC) activity: block
neurite
  effect on neurite length: no significant effect
  neurite initiation: stimulate
KCa3.1 [3]
  effect on KCa3.1 activity, 86Rb influx: no effect
[4]
  effect on increased [Ca2+]i accompanying deoxygenation: completely inhibited
KCa3.1 [5]
  effect on KCa3.1 activity, cell shrinkage: no effect
